Consider one compound from patent US20260215432A1, “ANTIMICROBIAL CONJUGATED OLIGOELECTROLYTES AND METHODS THEREOF” (National University of Singapore, priority 2023, published 2026).

Structures are written as SMILES.

In assay [1] the test system is Pseudomonas aeruginosa (PAO1, ATCC 47085). Put plainly: Time-kill kinetics. The class given is cell-based. The following applies: P. aeruginosa, treatment at or above the MBC. The protocol: (§1) Separately, MRSA and P. aeruginosa cultures were challenged with DM6P at varying concentrations and aliquots were taken at specific intervals to quantify the bacteria remaining.
(§2) The time-kill kinetics was determined against Pseudomonas aeruginosa (PAO1, ATCC 47085) and methicillin-resistant Staphylococcus aureus (ATCC BAA-1717). Bacteria tested were subcultured in Cation-Adjusted Mueller Hinton II Broth (CAMHB, BD Biosciences) from overnight cultures to mid-log phase at 37° C. with shaking at 200 rpm and diluted to an OD600 value of 0.2 and aliquoted into 2 mL fractions in culture tubes. The resulting bacterial suspension was then challenged with DM6P at varying concentrations and incubated at 37° C. with shaking at 200 rpm. At regular intervals, 100 μL aliquots of each sample were diluted with 10-fold dilution in PBS and plated on TSB agar plates with 100 μL inoculation. The colonies were incubated at 37° C. overnight and counted to determine the cfu/mL of each sample. Experiments were performed in triplicate.

For assay [2], the system named is methicillin-resistant Staphylococcus aureus (ATCC BAA-1717). The experiment in a line: Time-kill kinetics. Format: cell-based. The note with it: MRSA, within the first two hours, concentrations above the MBC value of 4 μg mL^−1. The protocol: as §1, §2
A further assay deals with MRSA. The experiment in a line: S. aureus murine wound infection model. The class given is in vivo, mice. The following applies: 0.05 mg/kg, MRSA-inoculated mouse wound, 24 hours. The protocol:
To probe the potential of TPP-COEs as viable therapeutics, we assessed the efficacy of DM6P to treat bacterial infections in vivo. An S. aureus murine wound infection model was used due to prevalent clinical concerns associated with S. aureus skin and soft tissue infections (SSTIs). […] Relative to current clinical dosages of 4-6 mg/kg for daptomycin, the low concentrations required to achieve such activity in vivo and absence of bacterial regrowth after 24 hours underscores the potential for further developing TPP-COEs with improved activity and safety profiles.
Animal experiments were approved by the Institutional Animal Care and Use Committee (IACUC), National University of Singapore (R20-1178) and carried out in line with procedures in the Guide for the Care and Use of Laboratory Animals (National Institutes of Health). C57BL6 mice (female, 18-20 g) were anaesthetized by ketamine and the hair at the back were shaved and removed. A 6 mm-diameter excisional wound was created on the back using a biopsy punch. Log phase MRSA (in 5 μl PBS) were inoculated onto the wound. A 3M tegaderm were used to cover the wound site from contamination. […] Significant levels were evaluated by a one-way ANOVA followed by a multiple comparison analysis of variance by a one-way Tukey test (Graphpad PRISM).

The next assay concerns PAO1. Put plainly: Membrane depolarization assay (DiSC3(5)). The class given is cell-based, P. aeruginosa. The following applies: DiSC3(5)-encapsulated PAO1 cells. The text has this:
The interactions of DM6P with various bacterial cell membranes were first investigated through spectrometric methods. In normal cells, compartmentalization of the intracellular space by the lipid bilayer enables the maintenance of a transmembrane potential, which is necessary for regular cell division and energy production. The membrane-potential sensitive dye 3,3′-dipropylthiadicarbocyanine iodide (DiSC3(5)) accumulates within the membranes of healthy, polarized cells where its fluorescence is self-quenched. Depolarization of the membrane necessary to maintain this gradient causes the release of this dye, resulting in an increase in fluorescence intensity. […]
Determination of the extent of depolarization of bacterial cell membranes was carried out using a voltage sensitive dye DiSC3(5) (ThermoFisher, USA). The dye is able to accumulate within polarized healthy cell membranes with resulting quenched fluorescence. When the membrane is depolarized, subsequent ion permeabilization releases the dye from the membrane and gives rise to enhanced fluorescence intensity.^3 The assay was performed according to a modified protocol reported previously. […] The plate was incubated in the dark for 30 minutes, with the signal measured every 5 minutes until a stable baseline was observed. COEs were then added at varying concentrations and the fluorescence intensity was measured over time at 37° C. […]

On to `COc1cc(/C=C/c2ccc(OCCCCCC[P+](c3ccccc3)(c3ccccc3)c3ccccc3)c(OC)c2)ccc1OCCCCCC[P+](c1ccccc1)(c1ccccc1)c1ccccc1.[I-].[I-]` [DM6P], for which, in assay [1], the “killing at or above the MBC value” was “eradication of the cells”. For the same compound, the “bacteria remaining (nearly complete killing)” value in assay [2] is < 100 cfu mL^−1. Also, in the assay with MRSA, the “reduction in bacterial load compared to the saline-treated group” value is recorded as 3.8 log fold. The “depolarization of the bacterial membrane” value with PAO1 is listed as “dose-dependent depolarization”.
